In US20260174677A1, “METHODS OF TREATING INSULIN RESISTANCE AND ASSOCIATED DISORDERS” (The University of Melboune, priority 2022, published 2026):

Experiments:
Format in all cases: in vivo, mouse
[1] = system: insulin induced p-AKT signalling in the ARC; experiment: I.C.V. fluorosamine in obese mice: insulin-induced p-AKT in the ARC; settings: following 10 days of treatment
Protocol: (§1) Under isoflurane anaesthetic 12-week HFHS fed C57BL/6J or AgRP-Cas9 mice were implanted stereotaxically with guide cannulas into the right lateral ventricle (0.2 mm posterior, 1.0 mm lateral from bregma). Guide cannula was positioned 1.3 mm above the injection site (1 mm ventral to the surface of the skull). AgRP-Cas9 mice were treated with either AAV-gScrambled or AAV-gIR and underwent guide cannula placement 7 days post AAV administration. Mice were administered I.C.V. vehicle (ddH2O), fluorosamine (100 μg/animal/day or 250 μgl/animal/day) in a volume of 2 μl/animal and all compounds were delivered approximately 1 h before lights off […].

[2] = Intranasal PZ6005 in obese mice: I.P. GTT, ITT and fasting glucose
Protocol: (§2) Metabolic measurements were undertaken in the Melbourne Mouse Metabolic Phenotyping Platform (The University of Melbourne, Australia). Glucose tolerance tests were performed on 6 h fasted conscious mice respectively by injecting D-glucose (2 mg/g of lean body mass and 1 mg/g lean mass for db/db and HFHS+STZ mice) into the peritoneal cavity and measuring glucose in tail blood immediately before and at 15, 30, 45, 60, 90 and 120 min after injection using an Accu-Check glucometer (Roche, Germany). The areas under glucose excursion curves were determined and expressed as mmol/1×min. Fasted (12 h fast) plasma insulin or glucose levels were determined using a Rat/Mouse Insulin ELISA (EZRMI-13K, Merck Millipore, CA) or an Accu-Check glucometer respectively. The HOMA-IR was calculated using the equation [(glucose×insulin)/405]. Adiposity was measured using TD-NMR minispec (Bruker Optics Inc., Billerica, MA).
Conscious mice were restrained by scruffing and inverted parallel to the floor with the chin at ˜180-degree angle with the neck. Using a 10 μL tip, a pipettor was loaded with 5 μl of vehicle (ddH2O) or fluorosamine (1 mg/animal in 20 μl or 5 mg/animal in 20 μl). The tip of the filled pipettor was placed near the left nostril at a 45-degree angle, and the drug was ejected to form a small 5 μl droplet at tip for the mouse to inhale. Immediately after the mouse inhaled the first droplet the remaining solution was ejected to form another small droplet for the mouse to inhale through the same nostril. The mouse was held in this position for 15 seconds before the procedure was repeated in the right nostril. The mouse was returned to the cage for 2 minutes and the process was repeated so that each mouse received four droplets of 5 μl each, delivering a total of 20 μl of solution. All drugs were administered delivered approximately 1 h before lights off […].
Obese mice intranasally receiving either vehicle or PZ6005 (1 or 5 mg/animal/day) were subjected to I.P. GTT after 6 hrs fasting period and I.P. insulin tolerance test (ITT) after 4 hrs fasting period.

[3] = I.C.V. fluorosamine in obese mice: metabolic assessment; settings: I.C.V. daily for 10 days
Protocol: as §2
Mice were acclimated for 24 h and then monitored for 48 h in an environmentally controlled Promethion Metabolic Screening System (Sable Systems International, NV) fitted with indirect open circuit calorimetry, food consumption and activity monitors to measure activity, caloric intake and energy expenditure. Respiratory quotients were calculated as the ratio of CO2 production over O2 consumption respiratory exchange ratio and energy expenditure was calculated using the Weir equation (Kcal h-1=60×(0.003941×VO2+0.001106×VCO2). To account for difference in body mass/composition energy expenditure was analysed and adjusted using ANCOVA using scripts available at the National Mouse Metabolic Phenotyping Centers (MMPC, Nashville, TN, USA) Energy Expenditure Analysis Page (https://www.mmpc.org/shared/regression.aspx).
as §1

With `CC(=O)NC1C(OC(C)=O)OC(COC(C)=O)[C@@H](F)C1OC(C)=O` (stereo partly shown) [fluorosamine, per-O-acetylated-4-F-N-acetylglucosamine] the “insulin induced p-AKT signalling in the ARC” value [1] was “enhanced insulin induced p-AKT signalling in the ARC”, the “glucose clearance rate vs 1 mg treatment group and controls” value ([2]; I.N. 5 mg, after 60 mins of I.P. glucose in GTT and after 0 mins of I.P. insulin) was “significantly higher glucose clearance rate” and the “insulin sensitivity (ITT)” value ([2]; I.N. 1 or 5 mg/animal/day, obese mice) was “enhanced insulin sensitivity”. The “glucose tolerance (glucose excursion in GTT and ITT)” value ([2]; I.N. 1 or 5 mg/animal/day, obese mice, vs control littermates) was “better glucose tolerance than control littermates”, the “fasting (12 hrs) glucose level” value ([2]; both doses of intranasal treatment (1 or 5 mg/animal/day)) was “Reduction” and the adiposity [3] was “reduced adiposity”. For the same molecule, the body weight [3] was “promoted weight loss”, the energy expenditure [3] was “enhanced energy expenditure independently of ambulatory activity” and the food intake [3] was “supressed food intake through enhanced satiety”. The glucose tolerance [3] was “improved glucose tolerance”.
